Experimental findings from patent US20230048678A1, “ICAN DERIVATIVES FOR ANTIFUNGAL USE” (DEBRECENI EGYETEM, priority 2019, published 2023) are described below.

Experiment [1] has as its system C. albicans isolate 3666. Briefly: Murine model of acute invasive candidiasis, survival. Type of experiment: in vivo, BALB/c mice. The conditions noted are these: neutropenic mice, 3×10^4 cfu/mouse iv, 5 mg/kg ip once daily for 5 days, olive oil/water emulsion; untreated controls 0%, P<0.05. As to the method: In the model of acute invasive candidiasis, neutropenic mice were infected via the lateral tail vein with C. albicans isolate 3666 (3×10^4 cfu/mouse) to establish an acute infection. It is well understood that any other fungal pathogens of animals can be used for this purpose. In the example provided herein all untreated control animals died within 6 days. DIMICAN (5 mg/kg) prolonged the survival period of animals compared to non-treated infected controls (P<0.05; 80 versus 0% survivors at day 7 post-infection; FIG. 3a). It should be noted, however, that DIMICAN was administered as intraperitoneal injection which contained DIMICAN as an emulsion in reagent grade olive oil and water. While emulsions are a kind of preferred options in the preparations of the invention, preparing alternative or improved formulations are within the skills of a person skilled in the art.
We used 10-12 week-old female BALB/c mice for all experiments. […] Mice were given food and water ad libitum and were monitored daily. […]
(§1) Survival effects were analyzed by the Kaplan—Meier log-rank test. Kidney burden was analysed using a Kruskal—Wallis test with Dunn's posttest for multiple comparisons [Foldi R 2012, Kovacs R 2014].

The test system of experiment [2] is C. albicans isolate 3666. Put plainly: Murine model, kidney fungal burden. The note with it: immunosuppressed mice, 10^4 cfu/mouse iv. Type of experiment: in vivo, BALB/c mice. As to the method:
During an independent in vivo experiment mice were infected intravenously with C. albicans isolate 3666. The infected mice were euthanized 2 or 6 days after infection (n=5 and 6 mice/time point, respectively), as disclosed herein, to determine the fungal burdens in the kidneys. Kidney burden was analyzed using a Kruskal-Wallis test with Dunn's posttest for multiple comparisons [Foldi R 2012, Kovacs R 2014]. Results of fungal burden experiments are shown on FIGS. 3b and c. […] It is well seen in […], that on day 6. the fungal burden increased by an order of magnitude (from −10^5 to −10^6) in the case of the untreated mice, while in the case of DIMICAN it remained the same as it was on day 2. The same is valid for AMB.
We used 10-12 week-old female BALB/c mice for all experiments. Mice were immunosuppressed using 150 mg/kg intraperitoneal (ip) cyclophosphamide dose (4 days prior to infection) and 100 mg/kg ip cyclophosphamide dose (1 day prior to infection; 2 and 5 days after infection) [Spellberg B, 2005]. All mice received ceftazidime (5 mg/day subcutaneously) from days 0 to 6 after infection. Mice were given food and water ad libitum and were monitored daily. The animals were maintained in accordance with the Guidelines for the Care and Use of Laboratory Animals, and the experiments were approved by the Animal Care Committee of the University of Debrecen, Debrecen, Hungary (permission no. 12/2014).
Mice were infected via the lateral tail vein with C. albicans 3666 bloodstream isolate. In the lethality (10 mice/group) and fungal tissue burden experiments (6 mice/group) the infectious doses were 3×10^4 and 10^4 cfu/mouse, respectively. These doses led to 100% and 0% mortality, respectively by day 6 after infection among untreated mice. Inoculum density was confirmed by plating serial dilutions onto Sabouraud dextrose agar (SDA) plates.
AMB (Fungizone, commercial preparation) and DIMICAN treatment in a 0.5-ml bolus was started 1 h after infection. The doses were 1 mg AMB and 5 mg DIMICAN (in olive oil/water (o/w) emulsion) per kg body weight. All antifungals were administered intraperitoneally once daily for 5 consecutive days.
Infected mice were euthanized 2 or 6 days after infection (n=6 mice/time point) to determine the fungal burden in the kidney. […] Aliquots of 0.1 ml of the undiluted and diluted homogenates were plated onto SDA, and the colony count was determined after 48 h. Colony-forming units (CFUs) were determined after 48 h of incubation at 37° C. and results were expressed as cfus/g tissue [Spellberg B, 2005]. […]
as §1

“Also recorded” adds a separate entry of the source.

With `[C-]#[N+]c1cccc2c(N(C)C)cccc12` [DIMICAN, N,N-dimethyl-1-amino-5-isocyanonaphthalene], the “survivors at day 7 post infection” value in the experiment on C. albicans isolate 3666 [1] worked out at 80%. The “effect on kidney fungal burden, six days after infection” value with C. albicans isolate 3666 [2] (5 mg/kg DIMICAN or 1 mg/kg AMB ip once daily for 5 days, p<0.05 (AMB), p<0.001 (DIMICAN) vs control) is “efficient; also recorded: significantly lower fungal burden”. In addition, in the experiment with C. albicans isolate 3666 [2] (5 mg/kg DIMICAN or 1 mg/kg AMB ip once daily, P>0.05 vs control), the “effect on kidney fungal burden, two days after infection” value is “no effect on fungal load”.
